System: healthy male subjects
Assay: Treatment emergent adverse events
Assay type: in vivo, human
Settings: for Incidence of TEAE: Dizziness / Incidence of TEAE: Dizziness postural / Incidence of TEAE: Fatigue / Incidence of TEAE: Headache / Incidence of TEAE: Nausea / Incidence of TEAE: Oropharyngeal pain / Incidence of TEAE: Presyncope / Incidence of TEAE: Pruritus / Incidence of TEAE: Somnolence / Incidence of TEAE: Vomiting: n = 8

CN1CCC23CCCCC2C1Cc1ccc(C(N)=O)cc13 (stereo not drawn) [ALKS 7119, (9α, 13α)‐17‐methylmorphinan‐3‐carboxamide]
64%: Subjects reporting TEAEs (all ALKS 7119 doses, 51 of 80 subjects (placebo 40%))
0: Incidence of TEAE: Dizziness (3 mg single oral dose) | Incidence of TEAE: Dizziness postural (3 mg single oral dose) | Incidence of TEAE: Headache (3 mg single oral dose) | Incidence of TEAE: Nausea (3 mg single oral dose) | Incidence of TEAE: Oropharyngeal pain (3 mg single oral dose) | Incidence of TEAE: Presyncope (3 mg single oral dose) | Incidence of TEAE: Pruritus (3 mg single oral dose) | Incidence of TEAE: Somnolence (3 mg single oral dose) | Incidence of TEAE: Vomiting (3 mg single oral dose) | Incidence of TEAE: Dizziness (10 mg single oral dose) | Incidence of TEAE: Dizziness postural (10 mg single oral dose) | Incidence of TEAE: Nausea (10 mg single oral dose) | Incidence of TEAE: Oropharyngeal pain (10 mg single oral dose) | Incidence of TEAE: Pruritus (10 mg single oral dose) | Incidence of TEAE: Vomiting (10 mg single oral dose) | Incidence of TEAE: Dizziness (25 mg single oral dose) | Incidence of TEAE: Dizziness postural (25 mg single oral dose) | Incidence of TEAE: Headache (25 mg single oral dose) | Incidence of TEAE: Nausea (25 mg single oral dose) | Incidence of TEAE: Oropharyngeal pain (25 mg single oral dose) | Incidence of TEAE: Pruritus (25 mg single oral dose) | Incidence of TEAE: Somnolence (25 mg single oral dose) | Incidence of TEAE: Vomiting (25 mg single oral dose) | Incidence of TEAE: Dizziness (50 mg single oral dose) | Incidence of TEAE: Dizziness postural (50 mg single oral dose) | Incidence of TEAE: Fatigue (50 mg single oral dose) | Incidence of TEAE: Oropharyngeal pain (50 mg single oral dose) | Incidence of TEAE: Pruritus (50 mg single oral dose) | Incidence of TEAE: Vomiting (50 mg single oral dose) | Incidence of TEAE: Dizziness (75 mg single oral dose) | Incidence of TEAE: Dizziness postural (75 mg single oral dose) | Incidence of TEAE: Fatigue (75 mg single oral dose) | Incidence of TEAE: Oropharyngeal pain (75 mg single oral dose) | Incidence of TEAE: Pruritus (75 mg single oral dose) | Incidence of TEAE: Dizziness (100 mg single oral dose) | Incidence of TEAE: Fatigue (100 mg single oral dose) | Incidence of TEAE: Oropharyngeal pain (100 mg single oral dose) | Incidence of TEAE: Pruritus (100 mg single oral dose) | Incidence of TEAE: Dizziness postural (125 mg single oral dose) | Incidence of TEAE: Fatigue (125 mg single oral dose) | Incidence of TEAE: Oropharyngeal pain (125 mg single oral dose) | Incidence of TEAE: Presyncope (125 mg single oral dose) | Incidence of TEAE: Somnolence (125 mg single oral dose) | Incidence of TEAE: Vomiting (125 mg single oral dose) | Incidence of TEAE: Dizziness postural (150 mg single oral dose) | Incidence of TEAE: Oropharyngeal pain (150 mg single oral dose) | Incidence of TEAE: Pruritus (150 mg single oral dose) | Incidence of TEAE: Dizziness (175 mg single oral dose) | Incidence of TEAE: Dizziness postural (175 mg single oral dose) | Incidence of TEAE: Fatigue (175 mg single oral dose) | Incidence of TEAE: Headache (175 mg single oral dose) | Incidence of TEAE: Oropharyngeal pain (175 mg single oral dose) | Incidence of TEAE: Pruritus (175 mg single oral dose) | Incidence of TEAE: Vomiting (175 mg single oral dose) | Incidence of TEAE: Dizziness postural (200 mg single oral dose) | Incidence of TEAE: Oropharyngeal pain (200 mg single oral dose) | Incidence of TEAE: Vomiting (200 mg single oral dose)
4: Incidence of TEAE: Presyncope (175 mg single oral dose)
5: Incidence of TEAE: Nausea (150 mg single oral dose) | Incidence of TEAE: Nausea (175 mg single oral dose)
2: Incidence of TEAE: Fatigue (25 mg single oral dose) | Incidence of TEAE: Headache (50 mg single oral dose) | Incidence of TEAE: Somnolence (50 mg single oral dose) | Incidence of TEAE: Vomiting (75 mg single oral dose) | Incidence of TEAE: Dizziness postural (100 mg single oral dose) | Incidence of TEAE: Somnolence (100 mg single oral dose) | Incidence of TEAE: Headache (125 mg single oral dose) | Incidence of TEAE: Nausea (125 mg single oral dose) | Incidence of TEAE: Headache (150 mg single oral dose) | Incidence of TEAE: Dizziness (200 mg single oral dose) | Incidence of TEAE: Pruritus (200 mg single oral dose)
3: Incidence of TEAE: Fatigue (3 mg single oral dose) | Incidence of TEAE: Headache (75 mg single oral dose) | Incidence of TEAE: Nausea (75 mg single oral dose) | Incidence of TEAE: Presyncope (75 mg single oral dose) | Incidence of TEAE: Headache (100 mg single oral dose) | Incidence of TEAE: Nausea (100 mg single oral dose) | Incidence of TEAE: Presyncope (150 mg single oral dose) | Incidence of TEAE: Headache (200 mg single oral dose) | Incidence of TEAE: Nausea (200 mg single oral dose)
1: Incidence of TEAE: Fatigue (10 mg single oral dose) | Incidence of TEAE: Headache (10 mg single oral dose) | Incidence of TEAE: Presyncope (10 mg single oral dose) | Incidence of TEAE: Somnolence (10 mg single oral dose) | Incidence of TEAE: Presyncope (25 mg single oral dose) | Incidence of TEAE: Nausea (50 mg single oral dose) | Incidence of TEAE: Presyncope (50 mg single oral dose) | Incidence of TEAE: Somnolence (75 mg single oral dose) | Incidence of TEAE: Presyncope (100 mg single oral dose) | Incidence of TEAE: Vomiting (100 mg single oral dose) | Incidence of TEAE: Dizziness (125 mg single oral dose) | Incidence of TEAE: Pruritus (125 mg single oral dose) | Incidence of TEAE: Dizziness (150 mg single oral dose) | Incidence of TEAE: Fatigue (150 mg single oral dose) | Incidence of TEAE: Somnolence (150 mg single oral dose) | Incidence of TEAE: Vomiting (150 mg single oral dose) | Incidence of TEAE: Somnolence (175 mg single oral dose) | Incidence of TEAE: Fatigue (200 mg single oral dose) | Incidence of TEAE: Presyncope (200 mg single oral dose) | Incidence of TEAE: Somnolence (200 mg single oral dose)

Reference: paper PMC9302689 (British Journal of Clinical Pharmacology, 2022)
